One compound from article PMC3996151, “Safety and pharmacological characterization of the molecular tweezer CLR01 – a broad-spectrum inhibitor of amyloid proteins’ toxicity” (BMC Pharmacology & Toxicology, 2014) can be followed below.

A short description of data set [1]: Plasma concentration by LC-MS after SC, IV or oral administration. The class given is in vivo, mouse. The protocol: For studies of plasma concentration, CLR01 was administered by either SC or intravenous (IV) injection at 1 mg/kg, or by oral gavage at 10 mg/kg, and plasma was collected at time points between 0.33 - 24 h. Three mice were used per time point. The concentration of CLR01 in plasma was determined by Wolfe Laboratories Inc. (Watertown, MA) using liquid chromatography-mass spectrometry (LC-MS) by interpolation of sample peak area data into the calibration curve.

Data set [2] deals with T1, calf intestinal alkaline phosphatase (Bos taurus, UniProt P19111).
T1 construct: purchased Promega, Madison, Wisconsin
Nature of the data set: In vitro dephosphorylation by alkaline phosphatase (inorganic phosphate release). The class given is in vitro ADME. The note with it: up to 100 nmol CLR01, 60 min at 60°C, detection limit 5 nmol. The protocol:
Potential dephosphorylation of CLR01 was analyzed by incubating 100 nmol CLR01 with 0.08 units of alkaline phosphatase (ALP; calf intestinal alkaline phosphatase, Promega, Madison, Wisconsin) for 60 min at 60°C. One enzymatic unit is defined as the amount of enzyme required for catalyzing the hydrolysis of 1 μmol of p-nitrophenylphosphate per minute. p-Nitrophenylphosphate disodium salt at 5–50 nmol (Fisher, Waltham, Massachusetts) was used for generation of a standard curve. The amount of inorganic phosphate generated was measured spectrophotometrically using an EnzChek Phosphate Assay kit (Life Technologies, Carlsbad, California) according to the manufacturer’s instructions on a DU-640 spectrophotometer (Beckman Coulter, Brea, California) at λ = 360 nm. Baseline values were subtracted from readings and compared to the standard curve resulting from serial ALP reactions to calculate the amount of inorganic phosphate. Similarly, potential dephosphorylation of CLR01 by brain homogenates was measured. For these experiments, one brain hemisphere was homogenized by sonication in the presence of cOmplete protease-inhibitor cocktail (Roche, Penzberg, Germany). Protein concentration was measured using a BCA Protein Assay Kit (Pierce, Rockford, Illinois). […]

T1 sequence (P19111 20-533): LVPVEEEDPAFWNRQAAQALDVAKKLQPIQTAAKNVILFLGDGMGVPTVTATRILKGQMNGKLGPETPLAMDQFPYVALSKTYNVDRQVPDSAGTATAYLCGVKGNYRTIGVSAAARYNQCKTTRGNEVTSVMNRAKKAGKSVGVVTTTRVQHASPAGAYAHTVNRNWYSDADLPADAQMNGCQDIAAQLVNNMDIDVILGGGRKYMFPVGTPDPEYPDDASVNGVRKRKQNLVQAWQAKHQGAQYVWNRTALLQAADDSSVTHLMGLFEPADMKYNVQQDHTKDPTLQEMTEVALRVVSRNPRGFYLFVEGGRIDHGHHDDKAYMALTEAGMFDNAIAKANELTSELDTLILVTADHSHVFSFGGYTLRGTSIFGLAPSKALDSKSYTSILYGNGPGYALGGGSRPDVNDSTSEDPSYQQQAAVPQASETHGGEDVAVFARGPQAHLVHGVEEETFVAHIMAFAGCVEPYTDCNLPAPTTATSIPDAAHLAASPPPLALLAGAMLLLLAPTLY

As for `O=P(O)(O)Oc1c2c(c(OP(=O)(O)O)c3c1C1CC3c3cc4c(cc31)C1CC4c3ccccc31)C1CC2c2cc3c(cc21)C1CC3c2ccccc21` [CLR01], in data set [1] (1 mg/kg SC vs IV, 2-m old WT mice), the SC bioavailability entry is “identical, within experimental error, to the IV administration”. Moreover, the “Administered dose detected in the blood at the earliest time point” value in data set [1] (20 min, SC or IV 1 mg/kg) is recorded as ~ 30%. For the same compound, the “Initial CLR01 levels found in the plasma” value in data set [1] (8 h following SC or IV administration) is reported as “Approximately 5%”. The half-life in data set [1] (mouse, plasma, subcutaneous, SC or IV 1 mg/kg) was about 2.5 h. In addition, the Oral bioavailability entry in data set [1] (oral gavage 10 mg/kg) is “negligible”. Also, the “Inorganic phosphate released on incubation with ALP” value in data set [2] is reported as “undetectable levels of inorganic phosphate”.

As a reminder, the half-life is the time in which the quantity being followed falls by half. A lower half-life goes with rapid decline.
